Square brackets hold non-standard residues; d marks the D form. Ends that are not written are not given here. Vat = not defined here
Assays:
KLH-specific IgE = assay: Allergen-specific (KLH-specific) IgE in vivo by passive cutaneous anaphylaxis (PCA); design: species or system mouse; conditions: BALB/c mice immunized with only OVAp in liposomes, KLH/alum challenge; pooled blood
Experimental: In a third experiment, the effect of immunoglobulin E peptide immunization on production of allergen-specific IgE in vivo was determined. Adult BALB/c mice (5/group) were immunized twice with either the test peptide p3 or the test peptide p1, together with the co-stimulatory factor OVAp in DOTAP liposomes, or with only the co-stimulatory factor OVAp in DOTAP liposomes. Mice immunized with saline served as control. Seven days after the second immunization, mice were challenged with 1 microgram keyhole limpet hemocyanin (KLH) in 2 milligrams alum intraperitoneally four times at a 10 day interval, and the allergen-specific (KLH-specific) IgE in pooled blood was then determined by passive cutaneous anaphylaxis (PCA) reaction. […] Reduction of allergen-specific PCA correlated directly with the elicitation of IgE peptide-specific cytotoxic T-lymphocytes in vitro (as depicted in FIG. 3B).

[1] = tested on: P815 murine mastocytoma cells; assay: Chromium release assay: CTL from peptide-immunized BALB/c mice against peptide-contacted P815 cells; type: cell-based, mouse; conditions: for CTL response cytotoxic to target cells displaying the peptide (specific lysis): BALB/c mice immunized with 30 micrograms peptide + OVAp in DOTAP liposomes, targets contacted with same peptide and interferon-gamma
Experimental: The test peptides p 1 and p2 were evaluated for the ability to elicit in mice a cytotoxic T-lymphocyte response to naturally presented immunoglobulin E peptides. Eight-week old BALB/c mice in groups of four were each immunized with 30 micrograms of one of the test peptides p1 or p2, together with 30 micrograms of the co-stimulatory factor OVAp (ovalbumin peptide) (Schimokevitz, 1984, J. Immunol., 133:2067), an oligopeptide consisting of the sequence […](SEQ ID NO. 3), in N-[1-(-2,3-dioleoyloxy)propyl]-N,N,N-trimethylammonium methylsulfate (DOTAP, purchased from Boehringer Mannheim, Indianapolis, Ind.) cationic liposomes. Two weeks after the first immunization, mice in each respective group were immunized a second time with the appropriate test peptide (p1 or p2) that had been used in the initial immunization. Two weeks after the second immunization, 5×10^6 spleen cells were removed from a pool of two to four mice, established in vitro, and re-stimulated with the respective test peptide in vitro for seven days. The cytotoxic T-lymphocytes thus obtained were tested using a standard chromium release assay (Colligan et al. 2002, Current Protocols in Immunology, 3.11) for their ability as effector cells to lyse target cells. The target cells consisted of P815 murine mastocytoma cells that had been contacted with the appropriate test peptide (p1 or p2) and treated overnight with 50 units per milliliter interferon-gamma to facilitate processing of the test peptide. Effector cells (E) and target cells (T) were mixed at different E/T ratios for 4 hours. The specific lysis was determined by the following formula: [(experimental release−spontaneous release)/(maximal release−spontaneous release)]×100.
The test peptide p3 was similarly evaluated for the ability to elicit a cytotoxic T-lymphocyte response in mice to naturally processed and presented immunoglobulin E peptides. […] The specific lysis was determined by the following formula: [(experimental release−spontaneous release)/(maximal release−spontaneous release)]×100.

[2] = tested on: LPS and IL-4 stimulated B-lymphocyte cultures; assay: Polyclonal IgE production by LPS and IL-4 stimulated B-lymphocyte cultures with CTL (ELISA); type: cell-based, mouse; conditions: CTL from mice immunized with only OVAp in DOTAP liposomes
Experimental: In a second experiment, BALB/c splenic B-lymphocytes were enriched by magnetic beads coated with an antibody against the B-lymphocyte-specific cell surface antigen B220. To assess CTL effects on polyclonal IgE production, 3×10^5 normal B-lymphocytes were added to either 3×10^6 p3-activated spleen cells from mice immunized with test peptide p3 together with the co-stimulatory factor OVAp in DOTAP liposomes, or to 3×10^6 p3-activated spleen cells from mice immunized with only the co-stimulatory factor OVAp in DOTAP liposomes as a control. The co-cultures were then stimulated with 20 micrograms per milliliter lipopolysaccharide (LPS) and 250 units per milliliter murine recombinant interleukin-4 (IL-4). Two days later, the culture supernatants were harvested. Immunoglobulin E levels were determined using a commercial double-sandwich ELISA assay (catalogue number 2655KI, PharMingen).

[3] = tested on: murine EL-4 lymphoma cells; assay: Chromium release assay: CTL from immunized C57BL/6 mice against p4-contacted EL-4 cells; type: cell-based, mouse; conditions: C57BL/6 mice immunized with p4 with OVAp; p4-contacted EL-4 targets
Text: Groups consisting each of five C57BL/6 mice were immunized with either 30 micrograms of the test peptide p4 with 30 micrograms of the co-stimulatory factor OVAp, or with 30 micrograms of the test peptide p5 delivered in 30 micrograms DOTAP liposomes. Two weeks after the first immunization, mice in each respective group were immunized a second time with the appropriate test peptide formulation (p4 plus OVAp, or p5 in DOTAP liposomes) that had been used in the initial immunization. Two weeks after the second immunization, 5×10^6 spleen cells were removed from a pool of two to four mice, established in vitro, and re-stimulated with the appropriate test peptide (p4 or p5) in vitro for seven days. The cytotoxic T-lymphocytes thus obtained were tested using a standard chromium release assay for their ability as effector cells to lyse target cells. The target cells consisted of murine EL-4 lymphoma cells, which display the major histocompatibility complex class I molecules H-2K^b and H-2D^b, and that had been contacted with the test peptide p4 and treated overnight with 50 units per milliliter interferon-gamma. Effector cells (E) and target cells (T) were mixed at different E/T ratios for 4 hours. The specific lysis was determined by the following formula: [(experimental release−spontaneous release)/(maximal release−spontaneous release)]×100.

HLA-A2.1 = HLA-A2.1 cell surface expression in RMA-S-A2.1 cells (FACS); type: cell-based, human; conditions: for Increase of HLA-A2.1-specific fluorescence intensity: RMA-S-A2.1 cells, 50 micromoles per liter peptide, 37 C overnight, FITC anti-HLA-A2.1
Experimental: Cells were pooled from the duplicate cultures and about 1×10^6 cells were incubated with 2 micrograms per milliliter fluorescein isothiocyanate-labelled anti-HLA-A2.1 antibody (catalogue number 32294x, PharMingen) at 4° C. for 30 min. Fluorescence-activated cell sorting (FACS) analysis was performed on a FACScan (Becton-Dickinson). About ten thousand events were collected and analyzed by CELLQuest software (version 1.2.2, BD Biosciences).

ISQAVHAAHAEINEAGR [OVAp, co-stimulatory factor]
KLH-specific IgE PCA titre (KLH-specific IgE): 160 | CTL response against p3-treated P815 target cells ([1]; BALB/c mice immunized with OVAp in liposomes only): did not induce a substantial CTL-response | immunoglobulin E production in vitro [2]: did not decrease immunoglobulin E production

IYGHILNDV [p2, lie Tyr Gly His li0e Leu Asn Asp Val]
CTL response cytotoxic to target cells displaying the peptide (specific lysis) [1]: able to elicit a CTL response

Ile Gln Leu Tyr Cys Phe Ile Try Gly His Ile Leu Asn Asp Val Ser Val (IQLYCFIYGHILNDVSV; Mouse (Mus musculus)) [p4]
immunoglobulin E-specific CTL response [3]: comparable levels of immunoglobulin E-specific CTL response

LLTVSGAWA [539.8]
effect of exogenous human beta-2 microglobulin on surface expression of HLA-A2.1 (HLA-A2.1; RMA-S-A2.1 cells incubated with peptide in presence versus absence of human beta-2 microglobulin): did not substantially enhance surface expression of HLA-A2.1 | Increase of HLA-A2.1-specific fluorescence intensity (HLA-A2.1): one log

LYCFIYGHI [p1]
CTL response cytotoxic to target cells displaying the peptide (specific lysis) [1]: able to elicit a CTL response

QLPDARHST [539.9]
Increase of HLA-A2.1-specific fluorescence intensity (HLA-A2.1): one log

TQSPSVFPL [539.10]
Increase of HLA-A2.1-specific fluorescence intensity (HLA-A2.1): one log

Trp Val Asp Asn Lys Thr Phe Ser Vat (WVDNKTFS[Vat]; reading uncertain; also: printed as Trp Val Asp Asn Lys Thr Phe Ser Vat) [539.12]
Increase of HLA-A2.1-specific fluorescence intensity (HLA-A2.1): one log

WLSDRTYTC [539.11]
Increase of HLA-A2.1-specific fluorescence intensity (HLA-A2.1): one log

From patent US7604955B2, “Immunoglobulin E vaccines and methods of use thereof” (priority 2001, dated 2009)
